Results published in US20110293746A1, “Modulation of Gsk-3Beta and Method of Treating Proliferative Disorders” (Agency For Science, Technology and Research, priority 2004, published 2011).

What was measured:
[1] = test system: HCT116 cells expressing p53 shRNA; experiment: FACS apoptosis in HCT116 cells expressing p53 shRNA; format: cell-based, Human; settings: LY2119301 and ADR (1 μM) or 5-FU (100 μM), 24 h, p53 knockdown
Protocol: (§1) FACS analysis of DNA content and caspase-3 activity: Cells were harvested and fixed in 70% ethanol. Fixed cells were stained with propidium iodide (50 μg/ml) after treatment with RNase (100 μg/ml). The stained cells were analyzed for DNA content by fluorescence-activated cell sorting (FACS) in a FACScalibur™ (Becton Dickinson Instrument, San Jose, Calif.). Cell cycle fractions were quantified using the CellQues™ software (Becton Dickinson). To measure caspase-3 activity, cells were fixed with Cytofix/Cytoperm™ solution (BD PharMingen) as instructed, and then stained with FITC-conjugated rabbit anti-active caspase-3 monoclonal antibody (BD PharMingen). Quantification of cells positive for the caspase-3 detection was performed by flow cytometry.
RNA interference: To generate knockdown vectors for p53, the following 19-nucleotide sequence was used: […] [SEQ ID NO: 1]. The oligonucleotide pair was cloned into the retroviral expression vector pSIREN-RetroQ™ (BD Bioscienses) according to the manufacturer's instructions. Briefly, 293 cells were transfected with the p53 shRNA construct for 48 h to produce viral particles. To establish p53 shRNA stable transfection clones, HCT116 cells were infected with retroviral stocks in the presence of 5 μg/ml polybrene. Infected cells were subject to puromycin selection at 2 μg/ml. […]

[2] = test system: HT29; experiment: Apoptosis in p53 mutant colon cancer cell line; format: cell-based, Human; settings: data not shown
Protocol: as §1

[3] = test system: SW480; experiment: Apoptosis in p53 mutant colon cancer cell line; format: cell-based, Human; settings: data not shown
Protocol: as §1

[4] = target: T1, GSK-3α (Homo sapiens, UniProt P49840); experiment: Immunoblot analysis of GSK-3 phosphorylation status in HCT116 cells; format: cell-based
T1 construct: endogenous in cells; host or cells: HCT116
Protocol: (§2) Protein concentration was quantified (Bio-Rad, Hercules, Calif.) and protein samples (50 μg) were separated by SDS/PAGE and transferred onto Immobilon™ membranes (Millipore, Bedford, Mass.). […] To detect Bax conformational change, cells were lysed in 1% Chaps buffer and the soluble fraction was immunoprecipitated with anti-Bax monoclonal antibody (6A7, BD, PharMingen), followed by immunoblotting with anti-Bax polyclonal antibody.
(§3) Subcellular fractionation: Cells were lysed in mitochondria lysis buffer (210 mM Mannitol, 70 mM Sucrose, 10 mM Hepes (pH, 7.4), 1 mM EDTA, protease inhibitor cocktail) with a Dounce homogenizer and subjected to centrifugation at 1000×g to pellet the nuclei. Post-nuclear supernatant was centrifuged at 10,000×g to pellet the mitochondria-enriched heavy membrane fraction, and the resulting supernatant was further centrifuged to obtain cytosolic fraction. Total proteins (30 μg) from cytosolic or mitochondrial fractions were subjected to immunoblot analysis.

[5] = target: T2, GSK-3β (Homo sapiens, UniProt P49841); experiment: as above; format: cell-based
T2 construct: endogenous in cells; host or cells: HCT116
Protocol: as §2, §3

[6] = test system: p53-inducible DLD1 cells; experiment: Apoptosis and immunoblot in tetracycline-inducible p53 expressing cells; format: cell-based, Human
Protocol: (§4) Cell culture and drug treatments: Human colon cancer cell line HCT116 and its derived isogenic p53^−/−, Puma^−/−, Bax^−/− and p53-inducible DLD cell lines were kindly provided by Dr. Bert Vogelstein (Johns Hopkins University, MD). RKO and RKO/E6 cells were from ATCC. Cells were cultured in DMEM containing 10% FBS. All culture reagents and media were from Invitrogen. 5-Fluorouracil, Adriamycin, etoposide and lithium chloride were purchased from Sigma. GSK-3β specific small molecule inhibitor LY2119301 was a gift from Eli Lilly (Indianapolis) and SB-216763, SB-415283 were obtained from BIOMOL.
(§5) Western blotting, immunoprecipitation and microarray analysis: Cells were scraped, collected and lysed as described previously (Yu, Q., et al. Cancer Res, 62: 5743-5748, 2002). Briefly, cells were lysed with cell lysis buffer (0.3% NP40, 1 mM EDTA, 50 mM Tris-HCl (pH 7.4), 2 mM EGTA, 1% Triton X-100, […], 25 mM NaF, 1 mM Na3VO4, 2 mM AEBSF, 5 μg/ml aprotinin, 1 μg/ml leupeptin) for 30 minutes on ice, and the lysates were clarified by centrifugation at 12,000×g for 15 minutes at 4° C. Protein concentration was quantified (Bio-Rad, Hercules, Calif.) and protein samples (50 μg) were separated by SDS/PAGE and transferred onto Immobilon™ membranes (Millipore, Bedford, Mass.). Antibodies against the following proteins were used: p53 (DO-1), p21, PARP, GSK-α/β, α-Tubulin, and β-actin (Santa Cruz Biotechnology), Puma (Ab-1, Oncogene), Bax (Sigma), phosphor-(Ser9/21)-GSK-3α/β and Caspase-9 (Cell Signaling Technologies), phosphor-(Tyr216/279)-GSK-3α/β (Upstate Biotechnologies), cytochrome c (BD PharMingen). To detect Bax conformational change, cells were lysed in 1% Chaps buffer and the soluble fraction was immunoprecipitated with anti-Bax monoclonal antibody (6A7, BD, PharMingen), followed by immunoblotting with anti-Bax polyclonal antibody. Microarray analysis was performed as described (Kho, P. S., et al. J Biol Chem, 279: 21183-21192, 2004).
as §1

[7] = test system: HCT116 cells infected with Ad-p53; experiment: Apoptosis and immunoblot in cells infected with adenovirus expressing p53; format: cell-based, Human
Protocol: as §5, §1
Adenoviral infections: Adenovirus Ad-LacZ and Ad-p53 were obtained from Dr. Shibin Zhou (Johns Hopkins University, Md.). Cells were grown to 50% confluence and infected with recombinant adenovirus as described (Yu, J., et al. Proc Natl Acad Sci USA, 96: 14517-14522, 1999). Twenty-four hours after the infection, cells were treated with drugs for the indicated times.

[8] = test system: HCT116 Bax −/− cells; experiment: FACS apoptosis and immunoblot; format: cell-based, Human
Protocol: as §4, §5, §1

[9] = test system: HCT116 Puma −/− cells; experiment: FACS apoptosis and immunoblot; format: cell-based, Human
Protocol: as §4, §5, §1

[10] = nuclear and cytoplasmic fractions
[11] = LY2119301 with ADR or etoposide
[12] = co-treated with LY2119301 and ADR or etoposide, 24 h

T1 sequence (P49840 whole entry): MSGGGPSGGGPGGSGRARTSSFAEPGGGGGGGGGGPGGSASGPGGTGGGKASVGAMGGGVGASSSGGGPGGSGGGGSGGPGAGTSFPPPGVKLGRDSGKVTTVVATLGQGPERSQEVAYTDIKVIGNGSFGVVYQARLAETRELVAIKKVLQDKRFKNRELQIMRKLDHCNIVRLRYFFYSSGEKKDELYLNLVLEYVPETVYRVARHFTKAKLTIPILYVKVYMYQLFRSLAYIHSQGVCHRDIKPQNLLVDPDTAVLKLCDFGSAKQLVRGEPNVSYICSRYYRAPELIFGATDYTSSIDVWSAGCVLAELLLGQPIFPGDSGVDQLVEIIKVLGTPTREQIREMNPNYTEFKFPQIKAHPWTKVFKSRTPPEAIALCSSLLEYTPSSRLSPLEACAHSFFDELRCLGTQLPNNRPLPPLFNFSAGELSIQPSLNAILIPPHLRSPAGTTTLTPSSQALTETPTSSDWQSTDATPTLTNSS
T2 sequence (P49841 whole entry): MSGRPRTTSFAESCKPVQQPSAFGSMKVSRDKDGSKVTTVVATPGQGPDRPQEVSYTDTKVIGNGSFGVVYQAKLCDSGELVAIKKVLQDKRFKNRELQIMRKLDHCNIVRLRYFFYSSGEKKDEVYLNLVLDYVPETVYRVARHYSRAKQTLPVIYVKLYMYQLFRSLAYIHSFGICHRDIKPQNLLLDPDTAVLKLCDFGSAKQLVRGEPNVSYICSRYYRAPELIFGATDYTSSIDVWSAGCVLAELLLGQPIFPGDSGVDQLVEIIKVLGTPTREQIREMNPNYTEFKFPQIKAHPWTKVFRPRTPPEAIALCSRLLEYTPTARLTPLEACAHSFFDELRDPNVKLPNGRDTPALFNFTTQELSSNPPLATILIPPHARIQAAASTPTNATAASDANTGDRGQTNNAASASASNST

CN1CCN(c2ccc(NCCNc3ccc([N+](=O)[O-])c(N)n3)nc2-c2ccc(Cl)cc2Cl)C(=O)C1 [LY2119301]
apoptosis induction by co-treatment vs control vector cells [1]: significantly reduced
apoptosis induction [2]: not induced
apoptosis induction [3]: not induced
activating tyrosine phosphorylation on GSK-3α ([4]; HCT116 whole lysate immunoblot): almost completely blocked
inhibitory serine 21 phosphorylation on GSK-3α ([4]; HCT116 whole lysate immunoblot): much lesser extent
tyrosine phosphorylation of GSK-3α [4, 10]: blocked
activating tyrosine phosphorylation on GSK-3β ([5]; HCT116 whole lysate immunoblot): almost completely blocked
inhibitory serine 9 phosphorylation on GSK-3β ([5]; HCT116 whole lysate immunoblot): increase
tyrosine phosphorylation of GSK-3β [5, 10]: blocked
serine phosphorylation on GSK-3β in cytoplasm and nucleus ([5]; nuclear and cytoplasmic fractions, with or without DNA damage): triggered
Bax activation ([6]; IP-Western, p53 induction plus LY2119301): similarly seen
ectopically expressed p53 protein levels ([6]; Western blot): no effect
p53 dependent transcription of p21 ([6]; Western blot): no effect
apoptosis induced by enforced p53 expression ([6]; in the presence of LY2119301): significantly increased
Bax activation ([7]; IP-Western, p53 over-expression plus LY2119301): similarly seen
apoptosis induced by enforced p53 expression ([7]; LY2119301 24 h): significantly increased
ectopically expressed p53 protein levels ([7]; immunoblot): no effect
p53 dependent transcription of p21 ([7]; immunoblot): no effect
PARP cleavage [8, 11]: not observed
apoptosis [8, 12]: completely refractory
induction of p21 after ADR or etoposide ([8]; immunoblot): similarly reduced
p53 accumulation after ADR or etoposide ([8]; immunoblot): similarly reduced
PARP cleavage [9, 11]: evident
apoptosis [9, 12]: marked apoptosis
induction of p21 after ADR or etoposide ([9]; immunoblot): similarly reduced
p53 accumulation after ADR or etoposide ([9]; immunoblot): similarly reduced
